# Experimental data taken from patent US20230085307A1, “PYRIDAZINONE COMPOUND AND HERBICIDE” (NISSAN CHEMICAL CORPORATION, priority 2019, published 2023).
# Columns and labels:
# [1] = tested on: late watergrass; assay: Test Example 1: herbicidal activity, application before weed generation under submerged conditions (Table 16, symbol A); format: in vivo, late watergrass (Echinochloa oryzicola); details: 320 g/ha applied herbicide
# Procedure, shortened: (§1)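 Submerged Wagner pots (alluvial soil, 4 cm water) sown with weed seeds and planted with 2.5-leaf rice seedlings; emulsifiable concentrate diluted in water applied to water surface on sowing day. Held in greenhouse at 25-30 °C; injury scored 0-5 by herbicidal rate after three weeks.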
# [2] = tested on: Japanese bulrush; assay: Test Example 1: herbicidal activity, application before weed generation under submerged conditions (Table 16, symbol B); format: in vivo, Japanese bulrush (Schoenoplectus juncoides); details: 320 g/ha applied herbicide
# Procedure, shortened: as §1
# [3] = tested on: oval-leafed pondweed; assay: Test Example 1: herbicidal activity, application before weed generation under submerged conditions (Table 16, symbol C); format: in vivo, oval-leafed pondweed (Monochoria vaginalis); details: 320 g/ha applied herbicide
# Procedure, shortened: as §1
# [4] = tested on: barnyard grass; assay: Test Example 3: herbicidal effect by foliage application, Wagner pot (Table 18, symbol H); format: in vivo, barnyard grass (Echinochloa crus-galli); details: 320 g/ha
# Procedure, shortened: (§2)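 Plants were sown in alluvial soil held under 0.1–0.5 cm standing water and grown 14 days in a greenhouse at 25–30 °C. An emulsifiable formulation, water-diluted to the set dose, was then sprayed onto the foliage, and effects were scored three weeks later using previously defined criteria.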
# [5] = tested on: Chinese sprangletop; assay: Test Example 3: herbicidal effect by foliage application, Wagner pot (Table 18, symbol D); format: in vivo, chinese sprangletop (Leptochloa chinensis); details: 320 g/ha
# Procedure, shortened: as §2
# [6] = tested on: rice flat sedge; assay: Test Example 3: herbicidal effect by foliage application, Wagner pot (Table 18, symbol E); format: in vivo, rice flat sedge (Cyperus iria); details: 320 g/ha
# Procedure, shortened: as §2
# [7] = tested on: southern crabgrass; assay: Test Example 4: herbicidal effect by soil treatment (Table 19, symbol F); format: in vivo, southern crabgrass (Digitaria ciliaris); details: amount of applied herbicide 320 g/ha
# Procedure, shortened: (§3)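 Three weeks of greenhouse growth at 25° C. to 30° C. followed a uniform surface spray of water-diluted emulsion at a predetermined herbicide amount. Seeds had been sown beforehand under about 1.5 cm of sterilized diluvial soil. Grading followed criteria set out in an earlier test.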
# [8] = tested on: green foxtail; assay: Test Example 4: herbicidal effect by soil treatment (Table 19, symbol G); format: in vivo, green foxtail (Setaria viridis); details: amount of applied herbicide 320 g/ha
# Procedure, shortened: as §3
# [9] = tested on: barnyard grass; assay: Test Example 4: herbicidal effect by soil treatment (Table 19, symbol H); format: in vivo, barnyard grass (Echinochloa crus-galli); details: amount of applied herbicide 320 g/ha
# Procedure, shortened: as §3
# [10] = tested on: wild oat; assay: Test Example 4: herbicidal effect by soil treatment (Table 19, symbol I); format: in vivo, wild oat (Avena fatua); details: amount of applied herbicide 320 g/ha
# Procedure, shortened: as §3
# [11] = tested on: blackgrass; assay: Test Example 4: herbicidal effect by soil treatment (Table 19, symbol J); format: in vivo, blackgrass (Alopecurus myosuroides); details: amount of applied herbicide 320 g/ha
# Procedure, shortened: as §3
# [12] = tested on: Italian ryegrass; assay: Test Example 4: herbicidal effect by soil treatment (Table 19, symbol K); format: in vivo, Italian ryegrass (Lolium multiflorum); details: amount of applied herbicide 320 g/ha
# Procedure, shortened: as §3
# [13] = tested on: windgrass; assay: Test Example 4: herbicidal effect by soil treatment (Table 19, symbol L); format: in vivo, windgrass (Apera spica-venti); details: amount of applied herbicide 320 g/ha
# Procedure, shortened: as §3
# [14] = tested on: velvetleaf; assay: Test Example 4: herbicidal effect by soil treatment (Table 19, symbol M); format: in vivo, velvetleaf (Abutilon theophrasti); details: amount of applied herbicide 320 g/ha
# Procedure, shortened: as §3
# [15] = tested on: redroot pigweed; assay: Test Example 4: herbicidal effect by soil treatment (Table 19, symbol N); format: in vivo, redroot pigweed (Amaranthus retroflexus); details: amount of applied herbicide 320 g/ha
# Procedure, shortened: as §3
# [16] = tested on: lambsquarters; assay: Test Example 4: herbicidal effect by soil treatment (Table 19, symbol O); format: in vivo, lambsquarters (Chenopodium album); details: amount of applied herbicide 320 g/ha
# Procedure, shortened: as §3
# [17] = tested on: chickweed; assay: Test Example 4: herbicidal effect by soil treatment (Table 19, symbol P); format: in vivo, common chickweed (Stellaria media); details: amount of applied herbicide 320 g/ha
# Procedure, shortened: as §3
# [18] = tested on: false cleavers; assay: Test Example 4: herbicidal effect by soil treatment (Table 19, symbol Q); format: in vivo, false cleavers (Galium spurium); details: amount of applied herbicide 320 g/ha
# Procedure, shortened: as §3
# [19] = tested on: persian speedwell; assay: Test Example 4: herbicidal effect by soil treatment (Table 19, symbol R); format: in vivo, Persian speedwell (Veronica persica); details: amount of applied herbicide 320 g/ha
# Procedure, shortened: as §3
# [20] = tested on: southern crabgrass; assay: Test Example 5: herbicidal effect by foliage application, plastic box (Table 20, symbol F); format: in vivo, southern crabgrass (Digitaria ciliaris); details: foliage application, 320 g/ha, three weeks after application
# Procedure, shortened: (§4)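 Plants sown in sterilized diluvial soil and grown 14 days in a greenhouse at 25° C to 30° C, then sprayed on the foliage with the compound's emulsion diluted in water to a predetermined herbicide amount. Injury to weeds and crops scored three weeks after application on a visual rating scale.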
# [21] = tested on: green foxtail; assay: Test Example 5: herbicidal effect by foliage application, plastic box (Table 20, symbol G); format: in vivo, green foxtail (Setaria viridis); details: foliage application, 320 g/ha, three weeks after application
# Procedure, shortened: as §4
# [22] = tested on: barnyard grass; assay: Test Example 5: herbicidal effect by foliage application, plastic box (Table 20, symbol H); format: in vivo, barnyard grass (Echinochloa crus-galli); details: foliage application, 320 g/ha, three weeks after application
# Procedure, shortened: as §4
# [23] = tested on: wild oat; assay: Test Example 5: herbicidal effect by foliage application, plastic box (Table 20, symbol I); format: in vivo, wild oat (Avena fatua); details: foliage application, 320 g/ha, three weeks after application
# Procedure, shortened: as §4
# [24] = tested on: blackgrass; assay: Test Example 5: herbicidal effect by foliage application, plastic box (Table 20, symbol J); format: in vivo, blackgrass (Alopecurus myosuroides); details: foliage application, 320 g/ha, three weeks after application
# Procedure, shortened: as §4
# [25] = tested on: Italian ryegrass; assay: Test Example 5: herbicidal effect by foliage application, plastic box (Table 20, symbol K); format: in vivo, Italian ryegrass (Lolium multiflorum); details: foliage application, 320 g/ha, three weeks after application
# Procedure, shortened: as §4
# [26] = tested on: windgrass; assay: Test Example 5: herbicidal effect by foliage application, plastic box (Table 20, symbol L); format: in vivo, windgrass (Apera spica-venti); details: foliage application, 320 g/ha, three weeks after application
# Procedure, shortened: as §4
# [27] = tested on: velvetleaf; assay: Test Example 5: herbicidal effect by foliage application, plastic box (Table 20, symbol M); format: in vivo, velvetleaf (Abutilon theophrasti); details: foliage application, 320 g/ha, three weeks after application
# Procedure, shortened: as §4
# [28] = tested on: redroot pigweed; assay: Test Example 5: herbicidal effect by foliage application, plastic box (Table 20, symbol N); format: in vivo, redroot pigweed (Amaranthus retroflexus); details: foliage application, 320 g/ha, three weeks after application
# Procedure, shortened: as §4
# [29] = tested on: lambsquarters; assay: Test Example 5: herbicidal effect by foliage application, plastic box (Table 20, symbol O); format: in vivo, lambsquarters (Chenopodium album); details: foliage application, 320 g/ha, three weeks after application
# Procedure, shortened: as §4
# [30] = tested on: chickweed; assay: Test Example 5: herbicidal effect by foliage application, plastic box (Table 20, symbol P); format: in vivo, common chickweed (Stellaria media); details: foliage application, 320 g/ha, three weeks after application
# Procedure, shortened: as §4
# [31] = tested on: persian speedwell; assay: Test Example 5: herbicidal effect by foliage application, plastic box (Table 20, symbol R); format: in vivo, Persian speedwell (Veronica persica); details: foliage application, 320 g/ha, three weeks after application
# Procedure, shortened: as §4
smiles,measurement,setting,value
CCCC(=O)Oc1c(C)nn(C)c(=O)c1-c1c(-c2ccc(F)c(C)c2)sc2ccccc12 [1-052],Herbicidal effect on A: late watergrass (grade 0-5),[1],3 (Herbicidal rate of 40% or more and less than 70%)
same,Herbicidal effect on B: Japanese bulrush (grade 0-5),[2],1 (Herbicidal rate of 5% or more and less than 20%)
same,Herbicidal effect on C: oval-leafed pondweed (grade 0-5),[3],3 (Herbicidal rate of 40% or more and less than 70%)
same,"herbicidal effect on H (barnyard grass), rating 0-5",[4],3 (Herbicidal rate of 40% or more and less than 70%)
same,"herbicidal effect on D (Chinese sprangletop), rating 0-5",[5],2 (Herbicidal rate of 20% or more and less than 40%)
same,"herbicidal effect on E (rice flat sedge), rating 0-5",[6],5 (Herbicidal rate of 90% or more (almost completely withered))
same,"herbicidal effect rating, F: southern crabgrass",[7],1 (Herbicidal rate of 5% or more and less than 20%)
same,"herbicidal effect rating, G: green foxtail",[8],4 (Herbicidal rate of 70% or more and less than 90%)
same,"herbicidal effect rating, H: barnyard grass",[9],3 (Herbicidal rate of 40% or more and less than 70%)
same,"herbicidal effect rating, I: wild oat",[10],0 (Herbicidal rate of 5% or less (almost no effect))
same,"herbicidal effect rating, J: blackgrass",[11],0 (Herbicidal rate of 5% or less (almost no effect))
same,"herbicidal effect rating, K: Italian ryegrass",[12],1 (Herbicidal rate of 5% or more and less than 20%)
same,"herbicidal effect rating, L: windgrass",[13],0 (Herbicidal rate of 5% or less (almost no effect))
same,"herbicidal effect rating, M: velvetleaf",[14],0 (Herbicidal rate of 5% or less (almost no effect))
same,"herbicidal effect rating, N: redroot pigweed",[15],0 (Herbicidal rate of 5% or less (almost no effect))
same,"herbicidal effect rating, O: lambsquarters",[16],2 (Herbicidal rate of 20% or more and less than 40%)
same,"herbicidal effect rating, P: chickweed",[17],4 (Herbicidal rate of 70% or more and less than 90%)
same,"herbicidal effect rating, Q: false cleavers",[18],0 (Herbicidal rate of 5% or less (almost no effect))
same,"herbicidal effect rating, R: persian speedwell",[19],3 (Herbicidal rate of 40% or more and less than 70%)
same,"herbicidal effect grade, F: southern crabgrass",[20],2 (Herbicidal rate of 20% or more and less than 40%)
same,"herbicidal effect grade, G: green foxtail",[21],5 (Herbicidal rate of 90% or more (almost completely withered))
same,"herbicidal effect grade, H: barnyard grass",[22],3 (Herbicidal rate of 40% or more and less than 70%)
same,"herbicidal effect grade, I: wild oat",[23],0 (Herbicidal rate of 5% or less (almost no effect))
same,"herbicidal effect grade, J: blackgrass",[24],0 (Herbicidal rate of 5% or less (almost no effect))
same,"herbicidal effect grade, K: Italian ryegrass",[25],0 (Herbicidal rate of 5% or less (almost no effect))
same,"herbicidal effect grade, L: windgrass",[26],0 (Herbicidal rate of 5% or less (almost no effect))
same,"herbicidal effect grade, M: velvetleaf",[27],5 (Herbicidal rate of 90% or more (almost completely withered))
same,"herbicidal effect grade, N: redroot pigweed",[28],3 (Herbicidal rate of 40% or more and less than 70%)
same,"herbicidal effect grade, O: lambsquarters",[29],3 (Herbicidal rate of 40% or more and less than 70%)
same,"herbicidal effect grade, P: chickweed",[30],5 (Herbicidal rate of 90% or more (almost completely withered))
same,"herbicidal effect grade, R: persian speedwell",[31],1 (Herbicidal rate of 5% or more and less than 20%)
